Data: patent publication US6132944A, “Photographic element containing high dye-yield couplers” (Eastman Kodak Company, priority 1999, dated 2000)
Read-outs that look alike come from different tables or passages of the source.

How the values were obtained:
[1] = pKa by spectrophotometric titration in aqueous Triton X-100; format: physicochemical; conditions: for pKa: Table I; for pKa (Sol. group): Table II; for pK1: first ionization, sulfonamide in conjugation with naphthalene; for pK2: second sulfonamide (in conjugation with the phenyl ring)
Experimental: In the following examples, the pKa values were determined by standard procedures using spectrophotometric titration of the compounds of interest. The spectrophotometric technique involves measuring the absorption spectra of the compound of interest in a range of buffer solutions. The absorption data (optical densities, ODobsd) can then be used to determine the corresponding pKa value(s) according to eq 1-3
ODobsd=ODHnA +ODHn-1A + (1)
=b[HnA]εHnA +b[Hn-1A]εHn-1A (2)
=b[total]fHnA εHnA +b[total]fHn-1A
Typically, the experimental constants (b and [total]) are combined with the extinction coefficient (ε) and expressed as the maximum optical density (ODmax) for a given species. Eq 3 then becomes,
=ODmaxHnA fHnA +ODmaxHn-1A fHn-1A (4)
The fraction of a given species (f) is a function of the pH and pKa values.
For example, for a system with one titratable proton eq 5-6,
Thus, the pKa and ODmax values can be determined from a set of XY pair data (pH, ODobsd) using a non linear least squares fit.
This technique relies on a difference in extinction coefficient between the species of interest at a given wavelength. This can be seen by inspection as a change in the absorption spectrum over a given pH range. In addition to this macroscopic data, (the experimental pKa values), the spectrophotometric technique can also provide microscopic information, i.e., information about the relationship between the individual titratable groups and the pKa values. In this manner, a pKa value may be attributed to titration of a particular group in a molecule, e.g., a solubilizing group.
The absorption spectra over a range of pH values and pKa values for the model sulfonamides such as Comp-11 and Comp-8 (defined for the examples hereinafter) as well as the coupler Comp-12 may be plotted. In model sulfonamide Comp-11 (pK 6.65), the optical density change resulting from ionization of the sulfonamide which is in conjugation with the naphthalene group may be pinpointed. Model sulfonamide Comp-8 comprises the entire solubilizing group pK1 7.03, pK2 10.00). […] Finally, in the spectrophotometric titration of the coupler Comp-12, the ionization of both sulfonamides in the solubilizing group as well as ionization of the coupling site pK1 6.85, pK2 9.85, pK3 10.84) can be seen.
In practice, a stock solution of the appropriate compound (1×10^-4 M) and Triton X-100 (1.2%) in water was prepared. The Triton X-100 (CAS Registry No. [9002-93-1], polyoxyethylene(10) isooctylcyclohexyl ether) was obtained from Aldrich Chemical Co. and used as received.
To 1.50 mL of the appropriate phosphate buffer (μ=0.75) were added 1.50 mL of the stock solution. The solution was agitated to ensure adequate mixing, and its absorption spectrum and pH were measured. A non linear least squares method was then used to fit the data to a one, two, or three pKa value model as appropriate.

[2] = Table II, cited from earlier work
[3] = sol group, aqueous Triton X-100

## CCN(C(=O)OC(C(=O)Nc1cc(NS(=O)(=O)c2ccccc2NS(C)(=O)=O)ccc1Cl)C(=O)c1ccc(OC)cc1)c1ccc(C=C(C#N)c2nc3cc(C(C)(C)CC(C)(C)C)ccc3o2)c(C)c1 (stereo not drawn) [Inv-8]
[1]; [3]
  pKa: 6.1

## COc1ccc(C(=O)C(OC(=O)N(c2ccc(C=C(C#N)c3nc4cc(C(C)(C)CC(C)(C)C)ccc4o3)c(C)c2)C2CCCC2)C(=O)Nc2cc(NS(=O)(=O)c3ccccc3NS(C)(=O)=O)ccc2Cl)cc1 (stereo not drawn) [Inv-10]
[1]; [3]
  pKa: 6.1

## CCCCCCCCCCCCCCCCNS(=O)(=O)c1ccccc1 [Comp-19]
[1]; aqueous Triton X-100
  pKa (Sol. group): 13.0

## CCCCN(C(=O)OC(C(=O)Nc1ccccc1OC)C(=O)c1cccc(NS(=O)(=O)c2ccc(C)cc2)c1)c1ccc(C=C(C#N)c2nc3cc(C(C)(C)CC(C)(C)C)ccc3o2)c(C)c1 (stereo not drawn) [Comp-6]
[1]; [3]
  pKa: 8.9

## CC(=O)Nc1cc(NS(=O)(=O)c2ccc(O)cc2)ccc1Cl [Comp-20]
[1]; aqueous Triton X-100
  pKa (Sol. group): 8.1

## CCCCCCCCCCCCCCCCS(=O)(=O)Nc1ccc(Cl)c(NC(=O)C(OC(=O)N(CC)c2ccc(N=Nc3ccc(C(=O)OCCCCCCCCCCCC)cc3)cc2)C(=O)C(C)(C)C)c1 (stereo not drawn) [Comp-1]
[1]; [3]
  pKa: 9.5

## CN(C)S(=O)(=O)c1ccc(NS(C)(=O)=O)c2ccccc12 [Comp-11]
[1]; aqueous Triton X-100
  pKa (Sol. group): 6.6
[1]; sulfonamide in conjugation with the naphthalene group
  pK: 6.65

## CCCCCCCCCCCCCCCCNS(=O)(=O)c1ccc(Cl)c(NC(=O)C(OC(=O)N(CCCC)c2ccc(C=C(C#N)c3nc4ccccc4o3)c(C)c2)C(=O)c2ccc(OC)cc2)c1 (stereo not drawn) [Comp-2]
[1]; [3]
  pKa: 13

## CC(C)(C)C(=O)CC(=O)Nc1cc(NS(=O)(=O)c2ccc(NS(C)(=O)=O)c3ccccc23)ccc1Cl [Comp-12]
[1]; aqueous Triton X-100
  pKa (Sol. group): 6.8
[1]
  pK1: 6.85
  pK2: 9.85
[1]; third ionization
  pK3: 10.84

## CCN(C(=O)OC(C(=O)Nc1cc(NS(=O)(=O)c2ccc(NS(C)(=O)=O)c3ccccc23)ccc1Cl)C(=O)c1ccc(OC)cc1)c1ccc(C=C(C#N)c2nc3cc(C(C)(C)CC(C)(C)C)ccc3o2)c(C)c1 (stereo not drawn) [Inv-5]
[1]; [3]
  pKa: 6.7

## CCCCCCCN(C(=O)OC(C(=O)Nc1ccccc1OC)C(=O)c1cccc(NS(=O)(=O)c2ccc(C)cc2)c1)c1ccc(C=C(C#N)c2nc3ccc(C)cc3o2)c(C)c1 (stereo not drawn) [Comp-5]
[1]; [3]
  pKa: 8.8

## COc1ccccc1NC(=O)CC(=O)c1cccc(NS(=O)(=O)c2ccc(C)cc2)c1 [Comp-10]
[1]; Example 2
  pKa at the coupling site: 10.3
[1]; aqueous Triton X-100
  pKa (Sol. group): 8.8

## CCCCCCCCCCCCCCCCS(=O)(=O)Nc1ccc(Cl)c(NC(=O)CC(=O)C(C)(C)C)c1 [Comp-16]
[1]; aqueous Triton X-100
  pKa (Sol. group): 9.4

## Cc1cc(N(C(=O)OC(C(=O)Nc2cc(NS(=O)(=O)c3ccc(O)c(NS(C)(=O)=O)c3)ccc2Cl)C(=O)C(C)(C)C)C2CCCC2)ccc1C=C(C#N)c1nc2cc(C(C)(C)CC(C)(C)C)ccc2o1 (stereo not drawn) [Inv-1]
[1]; [3]
  pKa: 7.2

## Cc1cc(N(C(=O)OC(C(=O)Nc2cc(NS(=O)(=O)c3ccc(O)cc3)ccc2Cl)C(=O)C(C)(C)C)C2CCCC2)ccc1C=C(C#N)c1nc2cc(C(C)(C)CC(C)(C)C)ccc2o1 (stereo not drawn) [Comp-21]
[1]; [3]
  pKa: 8.8

## Cc1cc(N(C(=O)OC(C(=O)Nc2cc(NS(=O)(=O)c3ccc(NS(C)(=O)=O)cc3O)ccc2Cl)C(=O)C(C)(C)C)C2CCCC2)ccc1C=C(C#N)c1nc2cc(C(C)(C)CC(C)(C)C)ccc2o1 (stereo not drawn) [Inv-6]
[1]; [3]
  pKa: 7.4

## CNS(=O)(=O)c1ccccc1 [Comp-18]
[2]; in water (King)
  pKa (Sol. group): 11.43

## CCN(C(=O)OC(C(=O)Nc1cc(NS(=O)(=O)c2ccc(NS(C)(=O)=O)cc2)ccc1Cl)C(=O)c1ccc(OC)cc1)c1ccc(C=C(C#N)c2nc3cc(C(C)(C)CC(C)(C)C)ccc3o2)c(C)c1 (stereo not drawn) [Inv-7]
[1]; [3]
  pKa: 7.9

## CC(=O)c1cccc(NS(=O)(=O)c2ccc(C)cc2)c1 [Comp-9]
[1]; aqueous Triton X-100
  pKa (Sol. group): 8.7

## CCCN(C(=O)OC(C(=O)Nc1ccccc1OC)C(=O)c1cccc(NS(=O)(=O)c2ccc(C)cc2)c1)c1ccc(C=C(C#N)c2nc3c(C)cc(C)cc3s2)c(C)c1 (stereo not drawn) [Comp-4]
[1]; inferred from Comp-5 and Comp-6
  pKa: 8.8

## CCCCCCCCCCCCCCCCNS(=O)(=O)c1ccc(Cl)c(NC(=O)C(OC(=O)N(CCCCCCCCCCCC)c2ccc(C=C(C#N)c3nc4ccccc4o3)c(C)c2)C(=O)c2ccc(OC)cc2)c1 (stereo not drawn) [Comp-3]
[1]; [3]
  pKa: 13

## COc1ccc(C(=O)C(OC(=O)N(c2ccc(C=C(C#N)c3nc4cc(C(C)(C)CC(C)(C)C)ccc4o3)c(C)c2)C2CCCC2)C(=O)Nc2cc(NS(=O)(=O)c3ccc(O)cc3)ccc2Cl)cc1 (stereo not drawn) [Inv-3]
[1]; [3]
  pKa: 8.7

## CS(=O)(=O)c1ccc(O)cc1 [Comp-7]
[2]; in water (Bordwell and Cooper)
  pKa (Sol. group): 7.8

## Cc1cc(N(C(=O)OC(C(=O)Nc2cc(NS(=O)(=O)c3cccc(NS(C)(=O)=O)c3)ccc2Cl)C(=O)C(C)(C)C)C2CCCC2)ccc1C=C(C#N)c1nc2cc(C(C)(C)CC(C)(C)C)ccc2o1 (stereo not drawn) [Inv-9]
[1]; [3]
  pKa: 7.9

## CCN(C(=O)OC(C(=O)Nc1cc(NS(=O)(=O)c2c(NS(C)(=O)=O)ccc3ccccc23)ccc1Cl)C(=O)c1ccc(OC)cc1)c1ccc(C=C(C#N)c2nc3cc(C(C)(C)CC(C)(C)C)ccc3o2)c(C)c1 (stereo not drawn) [Inv-4]
[1]; [3]
  pKa: 6.5

## CS(=O)(=O)Nc1ccc(S(=O)(=O)Nc2ccc(Cl)cc2)c2ccccc12 [Comp-8]
[1]
  pK1: 7.03
  pK2: 10.00

## CCCCCCCCCCCCCCCCS(=O)(=O)Nc1ccc(Cl)c(NC(C)=O)c1 [Comp-17]
[1]; aqueous Triton X-100
  pKa (Sol. group): 9.5
